Experimental data as given in PubChem BioAssay AID1845228.

Settings: pampa; 60.0 min; 50.0 µM

SMILES	Papp
NC(=O)c1cccc(-c2cc(O)cc(OC(=O)NC3CCCCC3)c2)c1	6 ×10⁻⁶ cm/s
COCCn1cnc2c(c(-c3ccccc3)c(-c3ccccc3)n2Cc2ccc(OC)cc2)c1=N	231 ×10⁻⁶ cm/s
Nc1ccc(/C=C/C(=O)NCc2cc3cc(-c4ccc(C(=O)N5CCC(F)(F)CC5)cc4)cc(-c4ccc(F)cc4)c3o2)cn1	< 1 ×10⁻⁶ cm/s
CC(=O)OCC1=C(C(=O)O)N2C(=O)[C@@H](N)[C@H]2SC1	< 1 ×10⁻⁶ cm/s
CN1CCN(CCCN2c3ccccc3Sc3ccc(C(F)(F)F)cc32)CC1	53 ×10⁻⁶ cm/s
CC(Oc1ccccc1)C(=O)N[C@@H]1C(=O)N2[C@@H]1SC(C)(C)[C@@H]2C(=O)O (stereo partly drawn)	25 ×10⁻⁶ cm/s
CC(C)C[C@H](NC(=O)CNC(=O)c1cc(Cl)ccc1Cl)B1OC(=O)C(CC(=O)O)(CC(=O)O)O1	< 1 ×10⁻⁶ cm/s
COC(Cn1cnc2c(c(-c3ccccc3)c(-c3ccccc3)n2Cc2ccccc2)c1=N)OC	189 ×10⁻⁶ cm/s
CCC(=O)O[C@@H](OP(=O)(CCCCc1ccccc1)CC(=O)N1C[C@H](C2CCCCC2)C[C@H]1C(=O)O)C(C)C (stereo partly drawn)	118 ×10⁻⁶ cm/s
O=C(NCCO)c1cc(C(=O)NCCO)cc(C(=O)NCCO)c1	< 1 ×10⁻⁶ cm/s
NC(=O)c1cccc(-c2cc(Nc3ccc(OC(F)(F)F)cc3)ncn2)c1	94.4 ×10⁻⁶ cm/s
COc1ccc(C)cc1Nc1c2c(nc3ccccc13)CCC2	215 ×10⁻⁶ cm/s
N#Cc1ccc(C(=O)N2CCC3(CC2)N=C(N)c2c(F)ccc(F)c2N3)cn1	4 ×10⁻⁶ cm/s
COc1cccc2c1C(=O)c1c(O)c3c(c(O)c1C2=O)C[C@@](O)(C(C)=O)C[C@@H]3O[C@H]1C[C@H](N)[C@H](O)[C@H](C)O1	8 ×10⁻⁶ cm/s
Cc1cc(-c2nc(C(=O)Nc3cn(C4CCOCC4)nc3C(N)=O)co2)ccn1	43 ×10⁻⁶ cm/s
Cn1nnnc1Sc1ncnc2scc(-c3ccc(C#N)cc3)c12	63 ×10⁻⁶ cm/s
CNc1oc(-c2cccc(Cl)c2Cl)nc1C#N	124 ×10⁻⁶ cm/s
O=C(O)C1=C(CSc2nnnn2CS(=O)(=O)O)CS[C@@H]2[C@H](NC(=O)[C@H](O)c3ccccc3)C(=O)N12	12 ×10⁻⁶ cm/s
COc1ccc(-n2nc(C(F)F)cc2-c2ccc(S(C)=O)cc2)cc1 (stereo not drawn)	115 ×10⁻⁶ cm/s
NCCc1ccc(O)c(O)c1	< 1 ×10⁻⁶ cm/s
CCOc1ccc2ccccc2c1C(=O)N[C@@H]1C(=O)N2[C@@H]1SC(C)(C)[C@@H]2C(=O)O	< 1 ×10⁻⁶ cm/s
CC1=C2C[C@H]3[C@@H](CC[C@@H]4C[C@H](NS(C)(=O)=O)CC[C@@]43C)[C@@H]2CC[C@@]2(C1)O[C@@H]1C[C@H](C)CN[C@H]1[C@H]2C	132 ×10⁻⁶ cm/s
C1=C(c2cnc[nH]2)c2ccsc2CC1	5 ×10⁻⁶ cm/s
CCOC(=O)[C@H](CCc1ccccc1)N[C@@H](C)C(=O)N1C(=O)N(C)C[C@H]1C(=O)O	< 1 ×10⁻⁶ cm/s

SMILES	Papp
N#Cc1ccnc(Nc2cc(C3CCN(C4COC4)CC3)cc(N3CCC(F)(F)C3)n2)c1	133 ×10⁻⁶ cm/s
O=C(/C=C\n1cnc(-c2cc(C(F)(F)F)cc(C(F)(F)F)c2)n1)N1CC(F)(F)C1	121 ×10⁻⁶ cm/s
CCN1CCN(C(=O)c2ccc3c(c2)N(Cc2cc(C)ccc2C)C(=O)c2ccccc2S3(=O)=O)CC1	63 ×10⁻⁶ cm/s
OC[C@H]1O[C@@H](n2cnc3c(NCc4ccc(O)cc4)ncnc32)[C@H](O)[C@@H]1O	< 1 ×10⁻⁶ cm/s
C1CCC(COCCc2noc(C3CNC3)n2)C1	< 1 ×10⁻⁶ cm/s
CCCN(CCC)C1CCc2ccc(O)cc2C1 (stereo not drawn)	26 ×10⁻⁶ cm/s
O=C(O)C[C@H]1CCc2c1[nH]c1ccc(OCc3ccc(C4CCCC4)c(C(F)(F)F)c3)cc21	46 ×10⁻⁶ cm/s
Cc1ccnc(NC(c2cccc(O)c2)c2ccc3ccc(C)nc3c2O)c1 (stereo not drawn)	115 ×10⁻⁶ cm/s
CC/C=C(\C(=O)N[C@@H]1C(=O)N2C(C(=O)OCOC(=O)C(C)(C)C)=C(COC(N)=O)CS[C@H]12)c1csc(N)n1	< 1 ×10⁻⁶ cm/s
CC1(C)S[C@@H]2[C@@H](N3C(=O)[C@@H](c4ccccc4)NC3(C)C)C(=O)N2[C@H]1C(=O)O	> 300 ×10⁻⁶ cm/s
CCC(=O)N1CCN(c2ccc(-n3c(=O)ccc4cnc5ccc(-c6cnc7ccccc7c6)cc5c43)cc2C(F)(F)F)CC1	158 ×10⁻⁶ cm/s
Nc1nc2c(c(N3CCNCC3)n1)CCC1=C2[C@@H]2CCCC[C@@H]2O1	30 ×10⁻⁶ cm/s
CC=CC1=C(C(=O)O)N2C(=O)[C@@H](NC(=O)[C@H](N)c3ccc(O)cc3)[C@H]2SC1	282 ×10⁻⁶ cm/s
N=c1c2c(-c3ccccc3)c(-c3ccccc3)n(Cc3ccccc3)c2ncn1CCO	223 ×10⁻⁶ cm/s
COc1ccc(-c2noc(CC(=O)O)c2-c2ccc(OC)cc2)cc1	< 1 ×10⁻⁶ cm/s
O=C(N/N=C/c1ccc(O)c(O)c1)c1cc2ccccc2cc1O	5 ×10⁻⁶ cm/s
COCCn1cnc2c(c(-c3ccccc3)cn2Cc2ccccc2)c1=N	139 ×10⁻⁶ cm/s
CN[C@H](CC(C)C)C(=O)N[C@H]1C(=O)N[C@@H](CC(N)=O)C(=O)N[C@H]2C(=O)N[C@H]3C(=O)N[C@H](C(=O)N[C@H](C(=O)O)c4cc(O)cc(O)c4-c4cc3ccc4O)[C@H](O[C@H]3C[C@](C)(N)[C@@H](O)[C@H](C)O3)c3ccc(c(Cl)c3)Oc3cc2cc(c3O[C@@H]2O[C@H](CO)[C@@H](O)[C@H](O)[C@H]2O[C@H]2C[C@](C)(NCc3ccc(-c4ccc(Cl)cc4)cc3)[C@@H](O)[C@H](C)O2)Oc2ccc(cc2Cl)[C@H]1O	12 ×10⁻⁶ cm/s
O=C1CCc2ccc(OCCCCN3CCN(c4cccc(Cl)c4Cl)CC3)cc2N1	19 ×10⁻⁶ cm/s
O=C(Nc1ncc([N+](=O)[O-])s1)c1ccccc1O	8 ×10⁻⁶ cm/s
CCC1=C[C@@H]2CN(C1)Cc1c([nH]c3ccccc13)[C@@](C(=O)OC)(c1cc3c(cc1OC)N(C)[C@H]1[C@@](O)(C(=O)OC)[C@H](OC(C)=O)[C@]4(CC)C=CCN5CC[C@]31[C@@H]54)C2	30 ×10⁻⁶ cm/s
CCN(CC)CCCC(C)Nc1ccnc2cc(Cl)ccc12 (stereo not drawn)	8 ×10⁻⁶ cm/s
N#Cc1cccc(NC(=O)c2sc3nc4c(cc3c2N)N2CCC4CC2)c1	142 ×10⁻⁶ cm/s
CCCCN(CCCC)C(=O)CN1C[C@H](c2ccc3c(c2)OCO3)[C@@H](C(=O)O)[C@@H]1c1ccc(OC)cc1	9 ×10⁻⁶ cm/s

SMILES	Papp
c1nc(NC2CCCCCC2)c2cc(CNC[C@H]3CCCO3)sc2n1	105 ×10⁻⁶ cm/s
COc1ccc(CCn2cnc3c(c(-c4ccccc4)c(-c4ccccc4)n3Cc3ccccc3)c2=N)cc1OC	287 ×10⁻⁶ cm/s
Cc1[nH]c2ccccc2c1C1(O)C(=O)N(Cc2ccccc2)c2ccc(Cl)cc21 (stereo not drawn)	> 300 ×10⁻⁶ cm/s
Cn1nnnc1Sc1ncnc2scc(-c3ccc(C(F)(F)F)cc3)c12	> 300 ×10⁻⁶ cm/s
CC#CCC(C)[C@H](O)/C=C/[C@@H]1[C@H]2c3cccc(CCCC(=O)O)c3O[C@H]2C[C@H]1O (stereo partly drawn)	< 1 ×10⁻⁶ cm/s
O=C(C[C@@H]1NCCC[C@H]1O)Cn1cnc2cc(Br)c(Cl)cc2c1=O	43 ×10⁻⁶ cm/s
Cn1nnnc1Sc1ncnc2scc(-c3ccc([N+](=O)[O-])cc3)c12	93 ×10⁻⁶ cm/s
COc1cc(-c2nc(Cn3nnc(C(=O)Nc4cc(C)cc(C)c4)c3C)c(C)o2)cc(OC)c1OC	17 ×10⁻⁶ cm/s
C[C@]12CCCN1CC1=NNC(=O)c3cc(F)cc4[nH]c2c1c34	22 ×10⁻⁶ cm/s
CCC1C(C)=NN=C(c2ccc(OC)c(OC)c2)c2cc(OC)c(OC)cc21 (stereo not drawn)	91 ×10⁻⁶ cm/s
CCCC(C)(COC(N)=O)COC(=O)NC(C)C (stereo not drawn)	11 ×10⁻⁶ cm/s
O=C(Nc1cnc(Cl)nc1)c1ccc(F)c(F)c1	61 ×10⁻⁶ cm/s
C/C(=C(\CCOC(=O)C(C)C)SS/C(CCOC(=O)C(C)C)=C(/C)N(C=O)Cc1cnc(C)nc1N)N(C=O)Cc1cnc(C)nc1N	3 ×10⁻⁶ cm/s
O=C(CCl)Nc1cccc(NC2=NS(=O)(=O)c3ccccc32)c1	5.9 ×10⁻⁶ cm/s
CC(C)(C)c1ccc2c(c1)CC[C@H]2NC(=O)Nc1cccc2[nH]ncc12	< 1 ×10⁻⁶ cm/s
CO/N=C(\C(=O)N[C@@H]1C(=O)N2C(C(=O)OCOC(=O)C(C)(C)C)=C(/C=C\c3scnc3C)CS[C@H]12)c1csc(N)n1	11 ×10⁻⁶ cm/s
CCOc1ccc(CCNC(=O)c2cc3ccccc3n2Cc2cccc(C)n2)cc1OCC	271 ×10⁻⁶ cm/s
N=c1c2c(-c3ccccc3)c(-c3ccccc3)n(Cc3ccccc3)c2ncn1CC1CCCO1 (stereo not drawn)	207 ×10⁻⁶ cm/s
CC1(C)S[C@@H]2[C@H](NC(=O)COc3ccccc3)C(=O)N2[C@H]1C(=O)O	6 ×10⁻⁶ cm/s
O=C(Nc1ccc(S(=O)(=O)N2CCOCC2)cc1)c1cc(Cl)ccc1NS(=O)(=O)c1ccc(Cl)s1	85 ×10⁻⁶ cm/s
CC1(C)S[C@@H]2[C@H](NC(=O)C(C(=O)Oc3ccc4c(c3)CCC4)c3ccccc3)C(=O)N2[C@H]1C(=O)O (stereo partly drawn)	< 1 ×10⁻⁶ cm/s
COCCn1cnc2c(c(-c3ccccc3)c(-c3ccccc3)n2CCc2ccccc2)c1=N	116 ×10⁻⁶ cm/s
Cc1onc(-c2ccccc2)c1C(=O)N[C@@H]1C(=O)N2[C@@H]1SC(C)(C)[C@@H]2C(=O)O	8 ×10⁻⁶ cm/s
COc1ccc(CCNC(=O)CCc2c(C)c3cc4c(C)coc4cc3oc2=O)cc1	279 ×10⁻⁶ cm/s

SMILES	Papp
O=C(Nc1cnn2ccc(N3CCC[C@@H]3c3cc(F)ccc3F)nc12)N1CC[C@H](O)C1	3 ×10⁻⁶ cm/s
O=C(NCc1ccc(OC(F)(F)F)cc1)C1c2ccccc2C(=O)N1C1CCOCC1 (stereo not drawn)	42 ×10⁻⁶ cm/s
CNC1CCC(N(Cc2ccc(OC)c(-c3ccc(C#N)cc3)c2)C(=O)c2sc3ccccc3c2Cl)CC1 (stereo not drawn)	234 ×10⁻⁶ cm/s
Cc1ccc(=O)n(-c2ccccc2)c1	14 ×10⁻⁶ cm/s
O=C(O)C1CCc2cc(C3CCCCC3)c(Cl)cc21 (stereo not drawn)	61 ×10⁻⁶ cm/s
Nc1nc(N)c2c(OCC3CCN(Cc4ccccc4F)CC3)cccc2n1	12 ×10⁻⁶ cm/s
O=C(NN1CCCCC1)c1nn(-c2ccc(Cl)cc2Cl)c(-c2ccc(C#Cc3ccc(C(F)(F)F)cc3)s2)c1CNS(=O)(=O)N1CCCC1	4 ×10⁻⁶ cm/s
CCOc1ccc(C2C(C(=O)Nc3ccccc3OC)=C(C)Nc3c(C(=O)Nc4cccc(C)c4)cnn32)cc1 (stereo not drawn)	45 ×10⁻⁶ cm/s
COc1ccc(Cn2c(-c3ccccc3)c(-c3ccccc3)c3c(=N)n(CC4CCCO4)cnc32)cc1 (stereo not drawn)	297 ×10⁻⁶ cm/s
Cc1onc(-c2c(F)cccc2Cl)c1C(=O)N[C@@H]1C(=O)N2[C@@H]1SC(C)(C)[C@@H]2C(=O)O	28 ×10⁻⁶ cm/s
N=c1c2c(-c3ccccc3)cn(Cc3ccccc3)c2ncn1Cc1ccco1	226 ×10⁻⁶ cm/s
COc1ccc(Cn2c(-c3ccccc3)c(-c3ccccc3)c3c(=N)n(N4CCOCC4)cnc32)cc1	160 ×10⁻⁶ cm/s
CC[n+]1c(-c2ccccc2)c2cc(N)ccc2c2ccc(N)cc21	2 ×10⁻⁶ cm/s
CCN(CC)CCNc1ccc(C)c2sc3ccccc3c(=O)c12	> 300 ×10⁻⁶ cm/s
C=CC1=C(C(=O)O)N2C(=O)[C@@H](NC(=O)/C(=N/OCC(=O)O)c3csc(N)n3)[C@H]2SC1	4 ×10⁻⁶ cm/s
O=C1NC(Nc2ccccc2)=N/C1=C\c1ccc2c(c1)OCO2	< 1 ×10⁻⁶ cm/s
CC(C)C[C@H](CO)Nc1nc(S[C@@H](C)c2ccccc2)nc2nc(N)sc12	244 ×10⁻⁶ cm/s
Cc1ccc(NC(=O)c2ccc(CN3CCNCC3)cc2)cc1Nc1nccc(-c2cccnc2)n1	19 ×10⁻⁶ cm/s
Cn1nnnc1Sc1ncnc2scc(-c3ccc(Br)cc3)c12	159 ×10⁻⁶ cm/s
Cc1cccc(-c2csc3ncnc(Sc4nnnn4C)c23)c1	225 ×10⁻⁶ cm/s
CC(=O)Nc1ccc(OC(=O)c2ccccc2OC(C)=O)cc1	27 ×10⁻⁶ cm/s
